Source: patent US8309768B2, “FTY720-derived anticancer agents” (The Ohio State University Research Foundation, priority 2010, dated 2012)

Columns and labels:
[1] = test system: PTEN, p53, Mcl-1 in Huh7 cells; experiment: Western blot of signaling markers in drug-treated Huh7 cells; assay type: cell-based; details: 24 h
Description: Immunoblotting. Immunoblotting of biomarkers in cell lysates and tumor tissue homogenates was carried out according to a published procedure. Hung et al., Cancer Res., 68, 1204-1212 (2008).

[2] = test system: subcutaneous Hep3B tumors; experiment: Ectopic (subcutaneous) Hep3B xenograft tumor model; assay type: in vivo, athymic nude mice
Description: Xenograft tumor models. Ectopic tumors were established in athymic nude mice by subcutaneous injection of 1×10^6 Hep3B cells in a total volume of 0.1 ml of serum-free medium containing 50% Matrigel. Mice with established tumors were randomized to five groups (n=8) that received daily i.p. injections of OSU-2S or FTY720 at 5 or 10 mg/kg, or the vehicle. Tumor burdens were determined weekly using calipers (volume=width^2×length×0.52). Body weights were measured weekly. At the study endpoint, tumors were harvested, snap-frozen and stored at −80° C. for biomarker analysis. Blood and tissues were collected for evaluation of complete blood counts, serum chemistry and histopathology.

## CCC[C@@](N)(CO)CCc1ccc(OCCCCCC(C)C)cc1 [OSU-2S, (S)-2-amino-2-(4-[(6-methylheptyl)-oxy]phenethyl)pentan-1-ol]
[1]
  effect on expression levels of PTEN, p53, or Mcl-1: neither OSU-2S nor FTY720 had an appreciable effect
[2]; 5 mg/kg, i.p. once daily, P<0.001
  ectopic Hep3B tumor growth vs vehicle control: completely suppressed
[2]; 10 mg/kg i.p. daily, end of 42-day treatment
  reduction of tumor volume: more than 50%
[2]; Hep3B tumor tissue homogenates, Western blot
  intratumoral biomarkers of drug activity: PKCδ and caspase-3 were activated
